target: PRS (prolyl-tRNA synthetase) protein, PRS portion of EPRS (Homo sapiens (Human), UniProt P07814); assay: PRS enzyme activity inhibition experiment ([3H]proline, liquid scintillation); assay type: biochemical; conditions: purified PRS protein, 37° C. for 5 to 10 minutes
Procedure: In order to confirm the biological activities of the compounds prepared in Examples, % inhibition or IC50 values of PRS enzyme ([…]) activities were calculated.
Specifically, the portion corresponding to PRS in cDNA of EPRS was subcloned, and the obtained high-purity PRS protein was purified and used in the experiment. The compounds (1 μM) prepared in Examples were added into the reaction buffer (20 mM KPO4 (pH 7.4), 6 mM MgAc, 5 mM ATP, […] tRNA, 0.5 mM DTT, […][^3H]proline (1 mCi/mL)) and allowed to react at 37° C. for 5 to 10 minutes. The reaction was terminated with 3M paper that was in advance dried by addition of 5% TCA. The radioactivity was measured using a liquid scintillation counter.
% Inhibition and IC50 values of the respective compounds were calculated and analyzed using Microsoft Excel or Sigma Plot 8.0. In Tables 1 to 3, the results are divided into A, B and C according to the range of IC50. The case where the derived IC50 is 100 nM or less is represented by “A”, the case where the IC50 is 100 to 500 nM is represented by “B”, and the case where the IC50 is 500 nM or higher is represented by “C”.

Chain of PRS (prolyl-tRNA synthetase) protein, PRS portion of EPRS (P07814 1007-1512): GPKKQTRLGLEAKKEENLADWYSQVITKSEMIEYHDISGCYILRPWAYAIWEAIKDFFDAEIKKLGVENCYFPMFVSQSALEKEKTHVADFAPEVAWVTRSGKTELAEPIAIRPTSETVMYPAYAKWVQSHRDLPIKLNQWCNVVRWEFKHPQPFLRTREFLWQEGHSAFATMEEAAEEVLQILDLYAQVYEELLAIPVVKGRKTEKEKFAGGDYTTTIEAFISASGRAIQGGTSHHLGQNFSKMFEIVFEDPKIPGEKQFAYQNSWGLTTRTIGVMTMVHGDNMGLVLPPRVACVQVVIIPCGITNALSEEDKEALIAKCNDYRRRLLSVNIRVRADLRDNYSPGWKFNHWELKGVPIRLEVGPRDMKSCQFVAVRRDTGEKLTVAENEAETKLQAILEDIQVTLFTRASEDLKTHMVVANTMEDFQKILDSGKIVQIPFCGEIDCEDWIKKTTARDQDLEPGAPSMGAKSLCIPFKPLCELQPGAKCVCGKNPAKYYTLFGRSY

Cc1ccc2c(ncn2CCC[C@H]2NCCC[C@@H]2O)c1Cl [Example 44, (2R,3S)-2-(3-(4-chloro-5-methyl-1H-benzo[d]imidazol-1-yl)propyl)piperidin-3-ol] and Cc1c(Cl)ccc2c1ncn2CCC[C@H]1NCCC[C@@H]1O [Example 46, (2R,3S)-2-(3-(5-chloro-4-methyl-1H-benzo[d]imidazol-1-yl)propyl)piperidin-3-ol] cannot be ordered by IC50: 100 to 500 nM for the first, no more than 100 nM for the second.

Cc1c(Br)ccc2c1ncn2CCC[C@H]1NCCC[C@@H]1O [Example 45, (2R,3S)-2-(3-(5-bromo-4-methyl-1H-benzo[d]imidazol-1-yl)propyl)piperidin-3-ol] and O[C@H]1CCCN[C@@H]1CCCn1cnc2c(F)c(Br)ccc21 [Example 47, (2R,3S)-2-(3-(5-bromo-4-fluoro-1H-benzo[d]imidazol-1-yl)propyl)piperidin-3-ol] fall in the same range of IC50: 100 to 500 nM for the first, 100 to 500 nM for the second.

O[C@H]1CCCN[C@@H]1CCCn1cnc2ccc(Br)c(F)c21 [Example 48, (2R,3S)-2-(3-(6-bromo-7-fluoro-1H-benzo[d]imidazol-1-yl)propyl)piperidin-3-ol] and O[C@H]1CCCN[C@@H]1CCCn1cnc2ccc(F)c(F)c21 [Example 50, (2R,3S)-2-(3-(6,7-difluoro-1H-benzo[d]imidazol-1-yl)propyl)piperidin-3-ol] fall in the same range of IC50: 100 to 500 nM for the first, 100 to 500 nM for the second.

O[C@H]1CCCN[C@@H]1CCCn1cnc2c(F)c(F)ccc21 [Example 49, (2R,3S)-2-(3-(4,5-difluoro-1H-benzo[d]imidazol-1-yl)propyl)piperidin-3-ol] and O[C@H]1CCCN[C@@H]1CCCn1cnc2c(Cl)c(F)ccc21 [Example 62, (2R,3S)-2-(3-(4-chloro-5-fluoro-1H-benzo[d]imidazol-1-yl)propyl)piperidin-3-ol] fall in the same range of IC50: 100 to 500 nM for the first, 100 to 500 nM for the second.

Going from Cc1ccc2c(ncn2CCC[C@H]2NCCC[C@@H]2O)c1C [Example 51, (2R,3S)-2-(3-(4,5-dimethyl-1H-benzo[d]imidazol-1-yl)propyl)piperidin-3-ol] to Cc1c(F)ccc2c1ncn2CCC[C@H]1NCCC[C@@H]1O [Example 64, (2R,3S)-2-(3-(5-fluoro-4-methyl-1H-benzo[d]imidazol-1-yl)propyl)piperidin-3-ol], the IC50 falls from no less than 500 nM to no more than 100 nM.

O[C@H]1CCCN[C@@H]1CCCn1cnc2cc(F)c(F)cc21 [Example 52, (2R,3S)-2-(3-(5,6-difluoro-1H-benzo[d]imidazol-1-yl)propyl)piperidin-3-ol] and O[C@H]1CCCN[C@@H]1CCCn1cnc2cc(Cl)c(Cl)cc21 [Example 53, (2R,3S)-2-(3-(5,6-dichloro-1H-benzo[d]imidazol-1-yl)propyl)piperidin-3-ol] fall in the same range of IC50: 100 to 500 nM for the first, 100 to 500 nM for the second.

O[C@H]1CCCN[C@@H]1CCCn1cnc2cc(Br)c(Br)cc21 [Example 54, (2R,3S)-2-(3-(5,6-dibromo-1H-benzo[d]imidazol-1-yl)propyl)piperidin-3-ol] and Cc1cc2ncn(CCC[C@H]3NCCC[C@@H]3O)c2cc1C [Example 55, (2R,3S)-2-(3-(5,6-dimethyl-1H-benzo[d]imidazol-1-yl)propyl)piperidin-3-ol] cannot be ordered by IC50: no less than 500 nM for the first, no less than 500 nM for the second.

O[C@H]1CCCN[C@@H]1CCCn1cnc2ccc(Cl)c(Cl)c21 [Example 56, (2R,3S)-2-(3-(6,7-dichloro-1H-benzo[d]imidazol-1-yl)propyl)piperidin-3-ol] and COc1ccc2ncn(CCC[C@H]3NCCC[C@@H]3O)c2c1Cl [Example 60, (2R,3S)-2-(3-(7-chloro-6-methoxy-1H-benzo[d]imidazol-1-yl)propyl)piperidin-3-ol] fall in the same range of IC50: 100 to 500 nM for the first, 100 to 500 nM for the second.

O[C@H]1CCCN[C@@H]1CCCn1cnc2c(F)cc(F)cc21 [Example 57, (2R,3S)-2-(3-(4,6-difluoro-1H-benzo[d]imidazol-1-yl)propyl)piperidin-3-ol] and O[C@H]1CCCN[C@@H]1CCCn1cnc2c(F)cc(Br)cc21 [Example 72, (2R,3S)-2-(3-(6-bromo-4-fluoro-1H-benzo[d]imidazol-1-yl)propyl)piperidin-3-ol] cannot be ordered by IC50: no less than 500 nM for the first, 100 to 500 nM for the second.

O[C@H]1CCCN[C@@H]1CCCn1cnc2cc(F)cc(F)c21 [Example 58, (2R,3S)-2-(3-(5,7-difluoro-1H-benzo[d]imidazol-1-yl)propyl)piperidin-3-ol] and O[C@H]1CCCN[C@@H]1CCCn1cnc2cc(Br)cc(F)c21 [Example 73, (2R,3S)-2-(3-(5-bromo-7-fluoro-1H-benzo[d]imidazol-1-yl)propyl)piperidin-3-ol] cannot be ordered by IC50: no more than 100 nM for the first, 100 to 500 nM for the second.

COc1ccc2c(ncn2CCC[C@H]2NCCC[C@@H]2O)c1Cl [Example 59, (2R,3S)-2-(3-(4-chloro-5-methoxy-1H-benzo[d]imidazol-1-yl)propyl)piperidin-3-ol] and O=[N+]([O-])c1ccc2c(ncn2CCC[C@H]2NCCC[C@@H]2O)c1Cl [Example 77, (2R,3S)-2-(3-(4-chloro-5-nitro-1H-benzo[d]imidazol-1-yl)propyl)piperidin-3-ol] fall in the same range of IC50: 100 to 500 nM for the first, 100 to 500 nM for the second.

Cc1cc(Cl)cc2c1ncn2CCC[C@H]1NCCC[C@@H]1O [Example 61, (2R,3S)-2-(3-(6-chloro-4-methyl-1H-benzo[d]imidazol-1-yl)propyl)piperidin-3-ol] and Cc1cc(Br)cc2c1ncn2CCC[C@H]1NCCC[C@@H]1O [Example 63, (2R,3S)-2-(3-(6-bromo-4-methyl-1H-benzo[d]imidazol-1-yl)propyl)piperidin-3-ol] cannot be ordered by IC50: no more than 100 nM for the first, no more than 100 nM for the second.

Cc1c(F)ccc2ncn(CCC[C@H]3NCCC[C@@H]3O)c12 [Example 65, (2R,3S)-2-(3-(6-fluoro-7-methyl-1H-benzo[d]imidazol-1-yl)propyl)piperidin-3-ol] and O[C@H]1CCCN[C@@H]1CCCn1cnc2c(F)ccc(Cl)c21 [Example 74, (2R,3S)-2-(3-(7-chloro-4-fluoro-1H-benzo[d]imidazol-1-yl)propyl)piperidin-3-ol] fall in the same range of IC50: 100 to 500 nM for the first, 100 to 500 nM for the second.

First: O[C@H]1CCCN[C@@H]1CCCn1cnc2c(Cl)c(C(F)(F)F)ccc21 [Example 66, (2R,3S)-2-(3-(4-chloro-5-(trifluoromethyl)-1H-benzo[d]imidazol-1-yl)propyl)piperidin-3-ol]
Second: O[C@H]1CCCN[C@@H]1CCCn1cnc2ccc(C(F)(F)F)c(Cl)c21 [Example 67, (2R,3S)-2-(3-(7-chloro-6-(trifluoromethyl)-1H-benzo[d]imidazol-1-yl)propyl)piperidin-3-ol]
The IC50 of the first is higher: no less than 500 nM for the first, no more than 100 nM for the second.

Compared with COC(=O)c1cc(Br)c2c(c1)ncn2CCC[C@H]1NCCC[C@@H]1O [Example 68, methyl 7-bromo-1-(3-((2R,3S)-3-hydroxypiperidin-2-yl)propyl)-1H-benzo[d]imidazole-5-carboxylate], O[C@H]1CCCN[C@@H]1CCCn1cnc2cc(Cl)cc(Br)c21 [Example 69, (2R,3S)-2-(3-(7-bromo-5-chloro-1H-benzo[d]imidazol-1-yl)propyl)piperidin-3-ol] is lower in IC50: no less than 500 nM for the first, no more than 100 nM for the second. The second is the more potent here.

O[C@H]1CCCN[C@@H]1CCCn1cnc2cc(Br)cc(Cl)c21 [Example 70, (2R,3S)-2-(3-(5-bromo-7-chloro-1H-benzo[d]imidazol-1-yl)propyl)piperidin-3-ol] and O[C@H]1CCCN[C@@H]1CCCn1cnc2cc(Cl)cc(Cl)c21 [Example 80, (2R,3S)-2-(3-(5,7-dichloro-1H-benzo[d]imidazol-1-yl)propyl)piperidin-3-ol] cannot be ordered by IC50: no more than 100 nM for the first, no more than 100 nM for the second.

O[C@H]1CCCN[C@@H]1CCCn1cnc2cc(C(F)(F)F)cc(Br)c21 [Example 71, (2R,3S)-2-(3-(7-bromo-5-(trifluoromethyl)-1H-benzo[d]imidazol-1-yl)propyl)piperidin-3-ol] and O[C@H]1CCCN[C@@H]1CCCn1cnc2cc(C(F)(F)F)cc(Cl)c21 [Example 78, (2R,3S)-2-(3-(7-chloro-5-(trifluoromethyl)-1H-benzo[d]imidazol-1-yl)propyl)piperidin-3-ol] fall in the same range of IC50: 100 to 500 nM for the first, 100 to 500 nM for the second.

O=[N+]([O-])c1c(Br)ccc2c1ncn2CCC[C@H]1NCCC[C@@H]1O [Example 75, (2R,3S)-2-(3-(5-bromo-4-nitro-1H-benzo[d]imidazol-1-yl)propyl)piperidin-3-ol] and O=[N+]([O-])c1c(Br)ccc2ncn(CCC[C@H]3NCCC[C@@H]3O)c12 [Example 76, (2R,3S)-2-(3-(6-bromo-7-nitro-1H-benzo[d]imidazol-1-yl)propyl)piperidin-3-ol] cannot be ordered by IC50: no less than 500 nM for the first, no less than 500 nM for the second.

Going from O[C@H]1CCCN[C@@H]1CCCn1cnc2cc(Cl)cc(F)c21 [Example 79, (2R,3S)-2-(3-(5-chloro-7-fluoro-1H-benzo[d]imidazol-1-yl)propyl)piperidin-3-ol] to O[C@H]1CCCN[C@@H]1CCCn1cnc2cc(Cl)cc(-c3cn[nH]c3)c21 [Example 81, (2R,3S)-2-(3-(5-chloro-7-(1H-pyrazol-4-yl)-1H-benzo[d]imidazol-1-yl)propyl)piperidin-3-ol], the IC50 rises from no more than 100 nM to no less than 500 nM.

Compared with O[C@H]1CCCN[C@@H]1CCCn1cnc2cc(C(F)(F)F)cc(-c3cn[nH]c3)c21 [Example 82, (2R,3S)-2-(3-(7-(1H-pyrazol-4-yl)-5-(trifluoromethyl)-1H-benzo[d]imidazol-1-yl)propyl)piperidin-3-ol], O[C@H]1CCCN[C@@H]1CCCn1cnc2cc(Cl)cc(-c3cccc(F)c3)c21 [Example 83, (2R,3S)-2-(3-(5-chloro-7-(3-fluorophenyl)-1H-benzo[d]imidazol-1-yl)propyl)piperidin-3-ol] is lower in IC50: no less than 500 nM for the first, no more than 100 nM for the second. The second is the more potent here.

Source: patent US10981917B2, “Heterocyclic compound, its preparation method, and pharmaceutical composition comprising the same” (Daewoong Pharmaceutical Co., Ltd., priority 2017, dated 2021)
